In patent US9428507B2, “Compounds for the treatment of malaria” (The Broad Institute, Inc., priority 2013, dated 2016):
pIC50: −log10 of the molar value. Like-named read-outs stand apart in the source and are kept apart here.

Assays:
P. falciparum Dd2 = experiment: In vitro P. falciparum blood-stage assay, strain Dd2; format: cell-based; settings: Plasmodium falciparum
Description: (§1) Strains of Plasmodium falciparum (Dd2, 3D7, D6, K1, NF54, V1/3, HB3, 7G8, FCB, TM90C2B) were obtained from Malaria Research and Reference Reagent Resource Center (MR4). P. falciparum isolates were maintained with O-positive human blood in an atmosphere of 93% N2, 4% CO2, 3% O2 at 37° C. in complete culturing medium (10.4 g/L RPMI 1640, 5.94 g/L HEPES, 5 g/L albumax II, 50 mg/L hypoxanthine, 2.1 g/L sodium bicarbonate, 10% human serum and 43 mg/L gentamicin). Parasites were cultured in medium until the parasitemia reached 3-8%. Parasitemia was determined by checking at least 500 red blood cells from a Giemsa-stained blood smear. For the compound screening, a parasite suspension at 2.0% parasitemia and 2.0% hematocrit was created with medium. 25 μl of medium was dispensed into 384-well, black, clear-bottom plates. 100 nl of compounds in DMSO was transferred into the assay plates along with control compound (mefloquine). Next, 25 μl of the parasite suspension in medium was dispensed into the assay plates such that the final parasitemia was 1% and the final hematocrit was 1%. The assay plates were incubated for 72 hours at 37° C. […] The assay plates were read with 505 dichroic mirrors with 485-nm excitation and 530-nm emission settings.

P. falciparum 3D7 = experiment: In vitro P. falciparum blood-stage assay, strain 3D7; format: cell-based; settings: Plasmodium falciparum
Description: as §1

P. falciparum D6 = experiment: In vitro P. falciparum blood-stage assay, strain D6; format: cell-based; settings: Plasmodium falciparum
Description: as §1

P. falciparum K1 = experiment: In vitro P. falciparum blood-stage assay, strain K1; format: cell-based; settings: Plasmodium falciparum
Description: as §1

P. falciparum NF54 = experiment: In vitro P. falciparum blood-stage assay, strain NF54; format: cell-based; settings: Plasmodium falciparum
Description: as §1

P. falciparum V1/3 = experiment: In vitro P. falciparum blood-stage assay, strain V1/3; format: cell-based; settings: Plasmodium falciparum
Description: as §1

P. falciparum HB3 = experiment: In vitro P. falciparum blood-stage assay, strain HB3; format: cell-based; settings: Plasmodium falciparum
Description: as §1

P. falciparum 7G8 = experiment: In vitro P. falciparum blood-stage assay, strain 7G8; format: cell-based; settings: Plasmodium falciparum
Description: as §1

[1] = test system: P. falciparum 3D7 gametocytes; experiment: P. falciparum gametocyte viability assay; format: cell-based; settings: Plasmodium falciparum, 72 hours, Cell-titer glo, read-out: IC50 erythocytic stage (P. falciparum) sexual (IV & V)
Description: P. falciparum 3D7 stage Ill-V gametocytes were isolated by discontinuous Percoll gradient centrifugation of parasite cultures treated with 50 mM N-acetyl-D-glucosamine for 3 days to kill asexual parasites. Gametocytes (1.0×10^5) were seeded in 96-well plates and incubated with compounds for 72 hours. In vitro anti-gametocyte activity was measured using Cell-titer glo (Promega).

[2] = test system: P. berghei (ANKA GFP-luc); experiment: In vitro P. berghei liver-stage assay in HepG2 cells; format: cell-based; settings: Plasmodium berghei, 48 hour incubation, read-out: IC50 exo-erythrocytic stage P. berghei
Description: In vitro P. berghei liver-stage assay HepG2 cells were maintained in DMEM, 10% (vol/vol) FBS (Sigma), and 1% (vol/vol) antibiotic-antimycotic in a standard tissue culture incubator (37° C., 5% CO2). P. berghei (ANKA GFP-luc) infected Anopheles stephensi mosquitoes were obtained from the New York University Langone Medical Center Insectary (New York). For assays, ˜17,500 HepG2 cells per well were added to a 384-well microtiter plate in duplicate. After 18-24 h at 37° C. the media was exchanged and compounds were added. After 1 hour, parasites obtained from freshly dissected mosquitoes were added to the plates (4,000 parasites per well), the plates were spun for 10 min at 1,000 rpm, and then the plates were incubated at 37° C. The final assay volume was 30 μL. After a 48 hour incubation at 37° C., Bright-Glo (Promega) was added to the parasite plate to measure relative luminescence. The relative signal intensity of each plate was evaluated with an EnVision (PerkinElmer) system.

P. cynomolgi = experiment: In vitro P. cynomolgi liver stage assay in primary rhesus monkey hepatocytes; format: cell-based; settings: Plasmodium cynomolgi, Hepatocyte, in Macaca mulatta
Description: An in vitro P. cynomolgi liver stage assay was performed as described in Zeeman et al. Antimicrobial Agents and Chemotherapy, 2014, 58:1586-1595. 96-well plates are seeded with freshly isolated or thawed cryopreserved stocks of primary rhesus monkey hepatocytes one or two days before infection with 5×10^4 freshly dissected P. cynomolgisporozoites per well. After 2-3 h of sporozoite invasion into the hepatocytes, culture medium is exchanged for culture medium containing appropriate compound dilutions. Initially, compounds are tested in duplicate in 3 dilutions: 0.1, 1 and 10 μM. Plates are incubated for 6 days with medium exchange (including compound dilutions) every other day. Plates are fixed in methanol and parasites are stained with rabbit anti-PcyHSP70 antiserum in the presence of DAPI to stain the nuclei. Plates are automatically counted in a high-content imager (Operetta®) and small parasites (hypnozoites, s.f.) and large schizonts (I.f.) are recorded, as well as number of hepatocytes as a measure for cytotoxic effects of the compounds. Controls include uninfected hepatocytes, sporozoite infected wells without compound and infected wells with primaquine and atovaquone. When activity is recorded and reported, a more extensive dilution curve can be evaluated: a 7-point 3-fold dilution series from days 0-6.

[3] = test system: P. berghei (ANKA GFP-luc) blood stage parasites; experiment: In vivo P. berghei blood-stage assay; parameters: species or system CD-1 mice; settings: 50 mg/kg 4x, p.o., T/E
Description: CD-1 mice (n=4 per experimental group; female; 6-7-week-old; 20-24 g) were inoculated with 1×10^6 P. berghei (ANKA GFP-luc) blood stage parasites intravenously 24 hours before treatment and compounds were administered orally (at 0 hour). Parasitemia was monitored by the In vivo Imaging System (IVIS 100, Xenogen; Caliper Life Sciences) to acquire the bioluminescence signal. In addition, blood smear samples were obtained from each mouse on day 4 after inoculation, stained with Giemsa, and viewed under a microscope for visual detection of blood parasitemia. Animals with parasitemia exceeding 20% were euthanized.

COc1ccc2c3c([nH]c2c1)[C@H](CO)N(C(C)=O)CC31CCN(C(=O)Nc2ccccc2F)CC1 [Compound 15, (R)-2′-acetyl-N-(2-fluorophenyl)-1′-(hydroxymethyl)-7′-methoxy-1′,2′,3′,9′-tetrahydrospiro [piperidine-4,4′-pyrido[3,4-b]indole]-1-carboxamide]
IC50 (P. falciparum Dd2): 73 nM | IC50 (P. falciparum 3D7): 65 nM | IC50 (P. falciparum D6): 70 nM | IC50 (P. falciparum K1): 91 nM | IC50 (P. falciparum NF54): 88 nM | IC50 (P. falciparum V1/3): 98 nM | IC50 (P. falciparum HB3): 147 nM | IC50 (P. falciparum 7G8): 113 nM | pIC50 [1]: 6.19 | pIC50 [2]: 6.34 | pIC50 (P. cynomolgi; large schizonts (l.f.), read-out: IC50 exo-erythrocytic stage P. cynomolgi (l.f)): 6.08 | pIC50 (P. cynomolgi; small parasites (hypnozoites, s.f.), read-out: IC50 exo-erythrocytic stage P. cynomolgi (s.f)): 6.46 | % Activity [3]: 94.20% | % of control [3]: 5.80% | Avg. Mouse survival [3]: 6.3 days | Mouse survival in days, M1 ([3]; mouse M1): 6 days | Parasitized RBC over 100, M1 ([3]; mouse M1): 3.70 | Mouse survival in days, M2 ([3]; mouse M2): 6 days | Parasitized RBC over 100, M2 ([3]; mouse M2): 3.20 | Mouse survival in days, M3 ([3]; mouse M3): 7 days | Parasitized RBC over 100, M3 ([3]; mouse M3): 2.80
